Like-named read-outs stand apart in the source and are kept apart here.
Columns and labels:
[1] = tested on: honey bees; conditions: for Mortality (SE) 1 μg/ml IVM and 1mM Inhibitor: 1 mM inhibitor fed 24 h, then 1 mM inhibitor + 1 μg/ml ivermectin, proportion of bees dead at 24 h; for Mortality (SE), inhibitor-only control: 1 mM inhibitor without ivermectin, proportion of bees dead
Experimental: Apis mellifera were obtained from hives maintained on the University of Maryland farm in Beltsville, MD. Hives were maintained by standard bee keeping practices, and kept free of in-hive medications. Brood frames were taken from hives and emerging bees were collected daily into 207 ml cages of 15–20 bees and fed 30% sucrose w/v solution. Bees used in bioassays were 3–7 days post-eclosion.
Mortality was recorded 24 h after ivermectin exposure for 20–28 replicate cages of bees with approximately 15 bees in each cage. No-inhibitor controls (15 cages) were included in each assay. […] Mortality rates for each concentration of ivermectin were estimated by averaging the mortality of approximately 15 bees contained in each of 4 replicate cages. Similarly, to measure changes in sensitivity to ivermectin at varying dosages of the inhibitors, 4–12 replicate cages of bees (fewer at extreme dosages, more at intermediates) were fed a series of concentrations of each inhibitor (0, 0.03, 0.06, 0.125, 0.25, 0.5, 1.0, 2.0 mM) for 24 h, then fed a combination of the same inhibitor dose and 1μg/ml ivermectin solution.
Mortality was estimated as the proportion of bees within a cage that were dead at 24 or 48 h after treatment with ivermectin. Comparisons of mean mortality among treatments were tested using t-tests. LC50s of ivermectin with inhibitors were estimated using the ProcProbit procedure in SAS (V. 9.2).

[2] = tested on: honey bees; test: Acetamiprid assay: honey bee mortality after acetamiprid with or without inhibitors; conditions: for Mean mortality, acetamiprid with inhibitor: 1 mM inhibitor + 0.1 μg/μl acetamiprid; for Mean mortality, inhibitor only: 1 mM inhibitor without insecticide, 3 replicate cages

SMILES | Low inhibitor dosage that increases sensitivity of bees to ivermectin ([1]; 1 μg/ml ivermectin, 24 h (Fig 2)) [mM] | Mortality (SE) 1 μg/ml IVM and 1mM Inhibitor [1] | Mortality (SE), inhibitor-only control [1] | Mortality (SE), inhibitor-only control ([1]; listed as fumagillin) | Mean mortality, acetamiprid with inhibitor ([2]; 24 h) | Mean mortality, inhibitor only [2] | Synergism Ratio (LC50 relative to IVM) ([1]; 1 mM inhibitor) | LC50 of ivermectin ([1]; ivermectin alone in syrup, 24 h) [µg/mL] | Mortality (SE), inhibitor-only control ([1]; listed as quercetin) | Mean mortality, acetamiprid alone ([2]; 0.1 μg/μl acetamiprid, 24 h)
CO[C@@H]1[C@H](OC(=O)/C=C/C=C/C=C/C=C/C(=O)O)CC[C@]2(CO2)[C@H]1[C@@]1(C)O[C@@H]1CC=C(C)C [Fumagillin, fumagillin] | 0.03 | 0.47 | 0.01 (0.01) | 0.01 | 0.80 | 0.01 | – | – | – | –
CC[C@H](C)[C@H]1O[C@]2(CC[C@@H]1C)C[C@@H]1C[C@@H](C/C=C(\C)[C@@H](O[C@H]3C[C@H](OC)[C@@H](O[C@H]4C[C@H](OC)[C@@H](O)[C@H](C)O4)[C@H](C)O3)[C@@H](C)/C=C/C=C3\CO[C@@H]4[C@H](O)C(C)=C[C@@H](C(=O)O1)[C@]34O)O2 [Ivermectin (IVM), Ivermectin] | – | – | – | – | – | – | 1.00 | 1.57 | – | –
O=c1c(O)c(-c2ccc(O)c(O)c2)oc2cc(O)cc(O)c12 [Quercetin, quercetin] | – | 0.54 | 0.02 (0.02) | – | 0.97 | 0.07 | – | – | 0.02 | –
C/C(=N\C#N)N(C)Cc1ccc(Cl)nc1 [acetamiprid] | – | – | – | – | – | – | – | – | – | 0.25

Source: paper PMC4740413, “Multi-Drug Resistance Transporters and a Mechanism-Based Strategy for Assessing Risks of Pesticide Combinations to Honey Bees” (PLoS ONE, 2016)
